Assay results taken from BindingDB's records for doi:10.1128/aac.01536-06 (Public Health Research Institute, 2007).

Legend:
1,3-beta-glucan synthase [1] = target: T1, 1,3-beta-glucan synthase (Candida albicans, UniProt O13423); test: Inhibition of glucan synthase in Candida albicans ATCC 90028 in presence of 50% human serum
1,3-beta-glucan synthase [2] = target: T1, 1,3-beta-glucan synthase; test: Inhibition of glucan synthase in Candida albicans ATCC 36082 in presence of 10% human serum
1,3-beta-glucan synthase [3] = target: T1, 1,3-beta-glucan synthase; test: Inhibition of glucan synthase in Candida albicans ATCC 36082 in presence of 20% human serum
1,3-beta-glucan synthase [4] = target: T1, 1,3-beta-glucan synthase; test: Inhibition of glucan synthase in Candida albicans ATCC 36082 in presence of 50% human serum
1,3-beta-glucan synthase [5] = target: T1, 1,3-beta-glucan synthase; test: Inhibition of glucan synthase in Candida albicans SC5314 in presence of 20% human serum
1,3-beta-glucan synthase [6] = target: T1, 1,3-beta-glucan synthase; test: Inhibition of glucan synthase in Candida albicans SC5314 in presence of 50% human serum
1,3-beta-glucan synthase [7] = target: T1, 1,3-beta-glucan synthase; test: Inhibition of glucan synthase in Candida albicans ATCC 36082
1,3-beta-glucan synthase [8] = target: T1, 1,3-beta-glucan synthase; test: Inhibition of glucan synthase in Candida albicans SC5314 in presence of 10% human serum
1,3-beta-glucan synthase [9] = target: T1, 1,3-beta-glucan synthase; test: Inhibition of glucan synthase in Candida albicans 36082 assessed as incorporation of [3H]uridine diphosphoglucose
1,3-beta-glucan synthase [10] = target: T1, 1,3-beta-glucan synthase; test: Inhibition of glucan synthase in Candida albicans 36082 assessed as incorporation of [3H]uridine diphosphoglucose in presence of 50% serum
1,3-beta-glucan synthase [11] = target: T1, 1,3-beta-glucan synthase; test: Inhibition of glucan synthase in Candida albicans ATCC 90028 in presence of 20% human serum

T1 sequence (O13423 whole entry): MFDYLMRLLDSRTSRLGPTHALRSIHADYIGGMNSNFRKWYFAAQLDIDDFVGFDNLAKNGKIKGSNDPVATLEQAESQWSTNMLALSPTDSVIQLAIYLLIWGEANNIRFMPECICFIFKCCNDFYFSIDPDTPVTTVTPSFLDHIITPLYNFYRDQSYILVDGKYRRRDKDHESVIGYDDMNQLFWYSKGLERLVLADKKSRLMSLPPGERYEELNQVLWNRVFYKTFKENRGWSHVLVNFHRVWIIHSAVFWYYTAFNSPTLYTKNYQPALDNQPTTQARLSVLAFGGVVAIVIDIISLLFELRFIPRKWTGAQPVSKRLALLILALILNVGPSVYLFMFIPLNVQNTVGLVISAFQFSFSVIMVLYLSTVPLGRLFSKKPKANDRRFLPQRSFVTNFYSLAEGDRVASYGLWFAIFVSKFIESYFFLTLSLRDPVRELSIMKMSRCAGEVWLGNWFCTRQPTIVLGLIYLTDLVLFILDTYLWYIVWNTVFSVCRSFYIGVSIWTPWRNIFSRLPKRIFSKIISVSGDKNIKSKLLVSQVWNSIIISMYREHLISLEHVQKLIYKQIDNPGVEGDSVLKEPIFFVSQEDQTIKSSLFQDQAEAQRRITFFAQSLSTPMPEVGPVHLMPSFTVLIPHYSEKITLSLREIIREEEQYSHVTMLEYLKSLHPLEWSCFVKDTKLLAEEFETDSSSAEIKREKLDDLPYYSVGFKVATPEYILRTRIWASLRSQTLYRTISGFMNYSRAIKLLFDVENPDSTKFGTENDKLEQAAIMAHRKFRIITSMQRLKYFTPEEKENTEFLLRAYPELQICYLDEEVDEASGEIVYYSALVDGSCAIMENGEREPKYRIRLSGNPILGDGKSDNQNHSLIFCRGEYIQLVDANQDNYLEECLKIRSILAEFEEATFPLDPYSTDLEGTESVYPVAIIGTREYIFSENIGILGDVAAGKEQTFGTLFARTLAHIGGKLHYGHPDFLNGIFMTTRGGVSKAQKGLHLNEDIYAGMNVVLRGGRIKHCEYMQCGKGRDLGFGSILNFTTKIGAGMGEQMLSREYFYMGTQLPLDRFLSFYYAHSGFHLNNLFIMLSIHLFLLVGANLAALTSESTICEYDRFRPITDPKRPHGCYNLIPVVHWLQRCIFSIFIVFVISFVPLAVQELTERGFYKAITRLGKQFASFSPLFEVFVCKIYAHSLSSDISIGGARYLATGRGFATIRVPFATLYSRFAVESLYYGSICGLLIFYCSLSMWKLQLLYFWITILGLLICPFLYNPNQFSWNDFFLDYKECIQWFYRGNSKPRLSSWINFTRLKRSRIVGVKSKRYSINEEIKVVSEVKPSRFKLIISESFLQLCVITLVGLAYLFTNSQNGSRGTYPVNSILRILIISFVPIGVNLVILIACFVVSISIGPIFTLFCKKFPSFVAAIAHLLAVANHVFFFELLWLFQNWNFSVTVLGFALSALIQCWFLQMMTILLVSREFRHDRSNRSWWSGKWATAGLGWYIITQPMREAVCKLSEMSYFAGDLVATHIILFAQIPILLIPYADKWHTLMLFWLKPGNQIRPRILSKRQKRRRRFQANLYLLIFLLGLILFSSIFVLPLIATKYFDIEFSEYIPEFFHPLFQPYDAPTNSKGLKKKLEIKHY

**Q.** `CCC(C)CC(C)CCCCCCCCC(=O)N[C@H]1C[C@@H](O)[C@@H](NCCN)NC(=O)[C@@H]2[C@@H](O)CCN2C(=O)[C@H]([C@H](O)CCN)NC(=O)[C@H]([C@H](O)[C@@H](O)c2ccc(O)cc2)NC(=O)[C@@H]2C[C@@H](O)CN2C(=O)[C@H]([C@@H](C)O)NC1=O` (stereo partly specified) [CHEBI:474180] was tested. Which IC50 (1,3-beta-glucan synthase [1]) did it give?
**A.** The IC50 was 6.3 nM.

**Q.** And the IC50 (1,3-beta-glucan synthase [2])?
**A.** Its IC50 is 2.8 nM.

**Q.** And the IC50 (1,3-beta-glucan synthase [3])?
**A.** The IC50 was 5.3 nM.

**Q.** And the IC50 (1,3-beta-glucan synthase [4])?
**A.** The IC50 was 8.7 nM.

**Q.** And the IC50 (1,3-beta-glucan synthase [5])?
**A.** Its IC50 is 37 nM.

**Q.** And the IC50 (1,3-beta-glucan synthase [6])?
**A.** Its IC50 is 81 nM.

**Q.** And the IC50 (1,3-beta-glucan synthase [7])?
**A.** The IC50 was 0.9 nM.

**Q.** And the IC50 (1,3-beta-glucan synthase [8])?
**A.** Its IC50 is 27 nM.

**Q.** What about the IC50 (1,3-beta-glucan synthase [9]) of the same compound?
**A.** Its IC50 is 0.33 nM.

**Q.** And the IC50 (1,3-beta-glucan synthase [10])?
**A.** Its IC50 is 6.2 nM.

**Q.** What about the IC50 (1,3-beta-glucan synthase [11]) of the same compound?
**A.** The IC50 was 2.1 nM.
